Laboratory results published in PMC7253423, “Quassinoid analogs with enhanced efficacy for treatment of hematologic malignancies target the PI3Kγ isoform” (Communications Biology, 2020).

What was measured:
MOLM14 cells = test: Cell viability assay (CellTiter-Glo luminescence); format: cell-based; settings: Homo sapiens
Protocol: 5000 cells as indicated were cultured in 96-well plate with 100 μl of media. […] After treatment, the cells were incubated with 100 μl buffer for 10 min at room temperature following the instructions of CellTiter-Glo kit (Promega, Madison, WI). Luminescence was detected using a multi-mode reader Cytation 5 (BioTek, Winooski, VT). […] Two independent experiments done in duplicates were performed.

[1] = In vivo toxicity test, survival rate; parameters: species or system NOD/SCID mice; settings: for survival event status per mouse (Fig 6i; 1 = event/death, 0 = censored): 10mg/kg
Protocol: The survival rate was recorded to monitor the tolerance of the compounds in these mice.

In the case of `COC(=O)C12OCC34C(CC5C(C)=C(OC(=O)CNC(=O)OC(C)(C)C)C(=O)CC5(C)C3C(O)C1O)OC(=O)C(OC(=O)C=C(C)C)C24` (stereo not drawn) [#15], the viability at 0.00244141 µM (MOLM14 cells; MOLM-14, read-out: relative cell viability (Fig 6e), replicates, MOLM14, Con. 0.00244141 μM, fraction of 0 μM control) is reported as 71.1%, the viability at 0.0390625 µM (MOLM14 cells; MOLM-14, read-out: relative cell viability (Fig 6e), replicates, MOLM14, Con. 0.0390625 μM, fraction of 0 μM control) is reported as 15% and the viability at 0.15625 µM (MOLM14 cells; MOLM-14, read-out: relative cell viability (Fig 6e), replicates, MOLM14, Con. 0.15625 μM, fraction of 0 μM control) is reported as 5.59%. The viability at 0.625 µM (MOLM14 cells; MOLM-14, read-out: relative cell viability (Fig 6e), replicates, MOLM14, Con. 0.625 μM, fraction of 0 μM control) was 3.26%, the viability at 10 µM (MOLM14 cells; MOLM-14, read-out: relative cell viability (Fig 6e), replicates, MOLM14, Con. 10 μM, fraction of 0 μM control) was 3.59% and the “toxicity in vivo (survival)” value ([1]; 10 mg/kg intraperitoneally every other day, monitored 24 days, 4 mice per group) was “obviously lethal for the majority of mice within the first 4 days”. For the same compound, the “survival event status per mouse (Fig 6i; 1 = event/death, 0 = censored)” value ([1]; Days Post-treatment 2) was 1, the “survival event status per mouse (Fig 6i; 1 = event/death, 0 = censored)” value ([1]; Days Post-treatment 3) was 1 and the “survival event status per mouse (Fig 6i; 1 = event/death, 0 = censored)” value ([1]; Days Post-treatment 4) was 1.
